{"source": "patent US20060069132A1", "about": "“Azolecarboxamide herbicides” (priority 2004, published 2006)", "key": {"[1]": {"test_system": "barnyardgrass", "assay": "Test B flooded paddy test", "format": "in vivo, Echinochloa crus-galli", "conditions": "1000 g ai/ha, scale 0 to 100 (0 no effect, 100 complete control)", "in_short": "(§1)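 Formulated test chemicals went onto postemergence plants measuring 2 to 18 cm, at one to four leaves. For the paddy assay, species had reached two leaves. Scoring took place 13–15 days later by eye, relative to untreated plants, using 0 for no effect up to 100 for full control.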"}, "[2]": {"test_system": "corn", "assay": "Test B pre-/postemergence herbicide test", "format": "in vivo, Zea mays", "conditions": "for Corn plant response rating: postemergence", "in_short": "(§2)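 Visual rating, 0 (no effect) to 100 (complete control), versus untreated controls after 13–15 d in greenhouse. Pre- and postemergence applications (postemergence plants 2–18 cm, 1–4 leaves); flooded paddy arm at 2-leaf stage. Compounds in non-phytotoxic solvent plus surfactant.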"}, "[3]": {"test_system": "wild oat", "assay": "Test B postemergence herbicide test", "format": "in vivo, Avena fatua", "conditions": "postemergence", "in_short": "(§3)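 Treated at 2-leaf (paddy) or 1–4-leaf, 2–18 cm (postemergence); greenhouse 13–15 d; visual score vs control, 0 none to 100 complete control; dash = not tested.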"}, "[4]": {"test_system": "smallflower umbrella sedge", "assay": "Test C flooded paddy test", "format": "in vivo, Cyperus difformis", "protocol": "(§4) At the same time, plants selected from these crop and weed species and also winter barley (Hordeum vulgare L.), blackgrass (Alopecurus myosuroides Huds.), canarygrass (Phalaris minor Retz.), chickweed (Stellaria media (L.) Vill.), downy bromegrass (Bromus tectorum L.), green foxtail (Setaria viridis (L.) Beauv.), Italian ryegrass (Lolium multiflorum Lam.), wheat (Triticum aestivum L.), wild oat (Avenafatua L.) and windgrass (Apera spica-venti (L.) Beauv.) were treated with postemergence applications of some of the test chemicals formulated in the same manner. Plants ranged in height from 2 to 18 cm (1- to 4-leaf stage) for postemergence treatments. Plant species in the flooded paddy test consisted of rice (Oryza sativa), smallflower umbrella sedge (Cyperus difformis L.), ducksalad (Heteranthera limosa (Sw.) Willd.) and barnyardgrass (Echinochloa crus-galli (L.) Beauv.) grown to the 2-leaf stage for testing. Treated plants and controls were maintained in a greenhouse for 12 to 14 days, after which time all species were compared to controls and visually evaluated. Plant response ratings, summarized in Table C, are based on a scale of 0 to 100 where 0 is no effect and 100 is complete control. A dash (-) response means no test result."}, "[5]": {"test_system": "lambsquarters", "assay": "Test B pre-/postemergence herbicide test", "format": "in vivo, Chenopodium album", "conditions": "for Lambsquarters plant response rating: postemergence", "in_short": "as §2"}, "[6]": {"test_system": "pigweed", "assay": "Test B pre-/postemergence herbicide test", "format": "in vivo, Amaranthus retroflexus", "conditions": "for Pigweed plant response rating: postemergence", "in_short": "as §2"}, "[7]": {"test_system": "ducksalad", "assay": "Test B flooded paddy test", "format": "in vivo, Heteranthera limosa", "conditions": "1000 g ai/ha, scale 0 to 100 (0 no effect, 100 complete control)", "in_short": "as §1"}, "[8]": {"test_system": "Surinam grass", "assay": "Test B pre-/postemergence herbicide test", "format": "in vivo, Urochloa decumbens", "conditions": "for Surinam Grass plant response rating: postemergence", "in_short": "as §2"}, "[9]": {"test_system": "large crabgrass", "assay": "Test B pre-/postemergence herbicide test", "format": "in vivo, Digitaria sanguinalis", "conditions": "for Crabgrass, Large plant response rating: postemergence", "in_short": "as §2"}, "[10]": {"test_system": "velvetleaf", "assay": "Test B pre-/postemergence herbicide test", "format": "in vivo, Abutilon theophrasti", "conditions": "for Velvetleaf plant response rating: postemergence", "in_short": "as §2"}, "[11]": {"test_system": "wheat", "assay": "Test B postemergence herbicide test", "format": "in vivo, Triticum aestivum", "set-up": "key to Wheat plant response rating: 0 = no effect, 100 = complete control", "conditions": "postemergence", "in_short": "as §3"}, "[12]": {"test_system": "rice", "assay": "Test C flooded paddy test", "format": "in vivo, Oryza sativa", "protocol": "as §4"}, "[13]": {"test_system": "giant foxtail", "assay": "Test B pre-/postemergence herbicide test", "format": "in vivo, Setaria faberi", "conditions": "for Foxtail, Giant plant response rating: postemergence", "in_short": "as §2"}, "[14]": {"test_system": "morningglory", "assay": "Test B pre-/postemergence herbicide test", "format": "in vivo, Ipomoea coccinea", "conditions": "for Morningglory plant response rating: postemergence", "in_short": "(§5)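 Plants compared with untreated controls 13–15 days post-treatment and given a visual 0–100 injury score. Applications: preemergence to seeds; postemergence at 1- to 4-leaf (2–18 cm); paddy species flooded, 2-leaf stage. Vehicle non-phytotoxic, surfactant included.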"}, "[15]": {"test_system": "rice", "assay": "Test B flooded paddy test", "format": "in vivo, Oryza sativa", "conditions": "1000 g ai/ha, scale 0 to 100 (0 no effect, 100 complete control)", "in_short": "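Read-out: visual comparison with controls, scored 0 to 100, where 100 means complete control and 0 no effect. Formulated chemicals were applied postemergence to plants 2–18 cm tall (1- to 4-leaf), or to flooded-paddy plants at the 2-leaf stage, then held 13 to 15 days under glass.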"}, "[16]": {"test_system": "small flower umbrella sedge", "assay": "Test B flooded paddy test", "format": "in vivo, Cyperus difformis", "conditions": "1000 g ai/ha, scale 0 to 100 (0 no effect, 100 complete control)", "in_short": "as §1"}, "[17]": {"test_system": "barnyardgrass", "assay": "Test C flooded paddy test", "format": "in vivo, Echinochloa crus-galli", "protocol": "as §4"}, "[18]": {"test_system": "cocklebur", "assay": "Test B pre-/postemergence herbicide test", "format": "in vivo, Xanthium strumarium", "conditions": "for Cocklebur plant response rating: postemergence", "in_short": "as §5"}, "[19]": {"test_system": "blackgrass", "assay": "Test B postemergence herbicide test", "format": "in vivo, Alopecurus myosuroides", "conditions": "postemergence", "in_short": "as §1"}, "[20]": {"test_system": "ducksalad", "assay": "Test C flooded paddy test", "format": "in vivo, Heteranthera limosa", "protocol": "as §4"}, "[21]": {"test_system": "barnyardgrass", "assay": "Test B pre-/postemergence herbicide test", "format": "in vivo, Echinochloa crus-galli", "conditions": "for Barnyardgrass plant response rating: postemergence", "in_short": "as §5"}, "[22]": {"conditions": "125 g ai/ha, 0 is no effect, 100 is complete control, preemergence"}, "[23]": {"conditions": "125 g ai/ha, visual rating, scale 0 (no effect) to 100 (complete control)"}, "[24]": {"conditions": "500 g ai/ha, visual rating, 0 = no effect, 100 = complete control, preemergence"}, "[25]": {"conditions": "500 g ai/ha, scale 0 to 100, 0 is no effect, 100 is complete control"}, "[26]": {"conditions": "125 g ai/ha, scale 0 to 100 (0 no effect, 100 complete control)"}, "[27]": {"conditions": "250 g ai/ha, scale of 0 to 100, 0 is no effect, 100 is complete control"}, "[28]": {"conditions": "500 g ai/ha, visual rating after 12 to 14 days, scale 0 to 100 (0 no effect, 100 complete control)"}}}
{"compound": "CCc1nn(C(C)C)nc1C(=O)Nc1cccc(C(=O)N2CC=CC2)c1", "note": "[Compound 359]", "values": [{"measurement": "Barnyardgrass plant response rating", "setting": "[1]", "value": 70}, {"measurement": "Plant response rating (0 to 100 scale), Corn", "setting": "[2]; [22]", "value": 0}, {"measurement": "Corn plant response rating", "setting": "[2]; [23]", "value": 10}, {"measurement": "Plant response rating, Corn", "setting": "[2]; [24]", "value": 60}, {"measurement": "Corn plant response rating", "setting": "[2]; [25]", "value": 10}, {"measurement": "Oat, Wild plant response rating", "setting": "[3]; [23]", "value": 20}, {"measurement": "Oat, Wild plant response rating", "setting": "[3]; [25]", "value": 30}, {"measurement": "Sedge, Umbrella plant response rating", "setting": "[4]; 62 g ai/ha, scale 0 to 100", "value": 80}, {"measurement": "Sedge, Umbrella plant response rating", "setting": "[4]; [26]", "value": 90}, {"measurement": "Sedge, Umbrella plant response rating", "setting": "[4]; [27]", "value": 90}, {"measurement": "Plant response rating, Sedge, Umbrella", "setting": "[4]; [28]", "value": 95}, {"measurement": "Plant response rating (0 to 100 scale), Lambsquarters", "setting": "[5]; [22]", "value": 0}, {"measurement": "Lambsquarters plant response rating", "setting": "[5]; [23]", "value": 40}, {"measurement": "Plant response rating, Lambsquarters", "setting": "[5]; [24]", "value": 100}, {"measurement": "Lambsquarters plant response rating", "setting": "[5]; [25]", "value": 50}, {"measurement": "Plant response rating (0 to 100 scale), Pigweed", "setting": "[6]; [22]", "value": 0}, {"measurement": "Pigweed plant response rating", "setting": "[6]; [23]", "value": 20}, {"measurement": "Plant response rating, Pigweed", "setting": "[6]; [24]", "value": 100}, {"measurement": "Pigweed plant response rating", "setting": "[6]; [25]", "value": 50}, {"measurement": "Ducksalad plant response rating", "setting": "[7]", "value": 70}, {"measurement": "Plant response rating (0 to 100 scale), Surinam Grass", "setting": "[8]; [22]", "value": 20}, {"measurement": "Surinam Grass plant response rating", "setting": "[8]; [23]", "value": 10}, {"measurement": "Plant response rating, Surinam Grass", "setting": "[8]; [24]", "value": 70}, {"measurement": "Surinam Grass plant response rating", "setting": "[8]; [25]", "value": 10}, {"measurement": "Plant response rating (0 to 100 scale), Crabgrass, Large", "setting": "[9]; [22]", "value": 90}, {"measurement": "Crabgrass, Large plant response rating", "setting": "[9]; [23]", "value": 10}, {"measurement": "Plant response rating, Crabgrass, Large", "setting": "[9]; [24]", "value": 100}, {"measurement": "Crabgrass, Large plant response rating", "setting": "[9]; [25]", "value": 20}, {"measurement": "Plant response rating (0 to 100 scale), Velvetleaf", "setting": "[10]; [22]", "value": 0}, {"measurement": "Velvetleaf plant response rating", "setting": "[10]; [23]", "value": 20}, {"measurement": "Velvetleaf plant response rating", "setting": "[10]; [25]", "value": 20}, {"measurement": "Wheat plant response rating", "setting": "[11]; [23]", "value": 0}, {"measurement": "Wheat plant response rating", "setting": "[11]; [25]", "value": 20}, {"measurement": "Rice plant response rating", "setting": "[12]; 62 g ai/ha, scale 0 to 100", "value": 20}, {"measurement": "Rice plant response rating", "setting": "[12]; [26]", "value": 45}, {"measurement": "Rice plant response rating", "setting": "[12]; [27]", "value": 65}, {"measurement": "Plant response rating, Rice", "setting": "[12]; [28]", "value": 80}, {"measurement": "Plant response rating (0 to 100 scale), Foxtail, Giant", "setting": "[13]; [22]", "value": 60}, {"measurement": "Foxtail, Giant plant response rating", "setting": "[13]; [23]", "value": 20}, {"measurement": "Plant response rating, Foxtail, Giant", "setting": "[13]; [24]", "value": 100}, {"measurement": "Foxtail, Giant plant response rating", "setting": "[13]; [25]", "value": 20}, {"measurement": "Plant response rating (0 to 100 scale), Morningglory", "setting": "[14]; [22]", "value": 0}, {"measurement": "Morningglory plant response rating", "setting": "[14]; [23]", "value": 10}, {"measurement": "Plant response rating, Morningglory", "setting": "[14]; [24]", "value": 50}, {"measurement": "Morningglory plant response rating", "setting": "[14]; [25]", "value": 10}, {"measurement": "Rice plant response rating", "setting": "[15]", "value": 70}, {"measurement": "Sedge, Umbrella plant response rating", "setting": "[16]", "value": 80}, {"measurement": "Barnyardgrass plant response rating", "setting": "[17]; 62 g ai/ha, scale 0 to 100 (0 no effect, 100 complete control)", "value": 15}, {"measurement": "Barnyardgrass plant response rating", "setting": "[17]; [26]", "value": 55}, {"measurement": "Barnyardgrass plant response rating", "setting": "[17]; [27]", "value": 75}, {"measurement": "Plant response rating, Barnyardgrass", "setting": "[17]; [28]", "value": 75}, {"measurement": "Plant response rating (0 to 100 scale), Cocklebur", "setting": "[18]; [22]", "value": 0}, {"measurement": "Cocklebur plant response rating", "setting": "[18]; [23]", "value": 10}, {"measurement": "Plant response rating, Cocklebur", "setting": "[18]; [24]", "value": 30}, {"measurement": "Cocklebur plant response rating", "setting": "[18]; [25]", "value": 30}, {"measurement": "Blackgrass plant response rating", "setting": "[19]; [23]", "value": 20}, {"measurement": "Blackgrass plant response rating", "setting": "[19]; [25]", "value": 50}, {"measurement": "Ducksalad plant response rating", "setting": "[20]; 62 g ai/ha, scale 0 to 100", "value": 40}, {"measurement": "Ducksalad plant response rating", "setting": "[20]; [26]", "value": 80}, {"measurement": "Ducksalad plant response rating", "setting": "[20]; [27]", "value": 85}, {"measurement": "Plant response rating, Ducksalad", "setting": "[20]; [28]", "value": 90}, {"measurement": "Plant response rating (0 to 100 scale), Barnyardgrass", "setting": "[21]; [22]", "value": 0}, {"measurement": "Barnyardgrass plant response rating", "setting": "[21]; [23]", "value": 10}, {"measurement": "Plant response rating, Barnyardgrass", "setting": "[21]; [24]", "value": 90}, {"measurement": "Barnyardgrass plant response rating", "setting": "[21]; [25]", "value": 10}]}
